# Measurements: patent US20040198789A1, “Lercanidipine/ARB/diuretic therapeutic combinations” (Recordati Ireland Limited, priority 2003, published 2004)
# Experiments:
# ACE = ACE (Homo sapiens, UniProt P12821); details: cited from earlier work
# [1] = cited from earlier work; for time of peak serum/plasma concentration: following oral administration; for terminal half-life: in vivo
# AT1 receptor = target: T1, AT1 receptor (Homo sapiens, UniProt P30556); details: cited from earlier work
# T1 sequence (P30556 1-359): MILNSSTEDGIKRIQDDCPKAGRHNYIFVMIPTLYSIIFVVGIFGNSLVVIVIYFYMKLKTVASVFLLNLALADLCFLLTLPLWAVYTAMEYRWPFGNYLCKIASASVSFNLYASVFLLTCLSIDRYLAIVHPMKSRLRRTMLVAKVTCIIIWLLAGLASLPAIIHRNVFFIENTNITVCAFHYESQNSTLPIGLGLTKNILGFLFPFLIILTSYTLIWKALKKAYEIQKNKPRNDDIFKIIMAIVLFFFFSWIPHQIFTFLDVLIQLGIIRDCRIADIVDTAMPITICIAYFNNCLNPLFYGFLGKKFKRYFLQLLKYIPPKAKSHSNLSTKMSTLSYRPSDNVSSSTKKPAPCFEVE
# [2] = system: reperfusion-induced hypertension in uninephrectomized anesthetized rats; test: Model of acute angiotensin-mediated renal hypertension in anesthetized rats (SBP, DBP, HR); assay type: in vivo, rat
# Experimental: Male Sprague-Dawley rats, weighing 250-300 g, were anaesthetized with pentobarbital sodium (35 mg/kg, i.p.) and placed on a thermic blanket. The temperature was maintained at 37° C. with a thermoregulator via a rectal probe. The animals were tracheotomized to facilitate spontaneous breathing. A polyethylene catheter was placed in the left jugular vein to allow for infusion of pentobarbital sodium to maintain anesthesia. The left femoral vein and artery were cannulated with polyethylene catheters to allow drugs administration and to monitor blood pressure, respectively.
# Animals then underwent a left nephrectomy by excising the left kidney via a flank incision. The right kidney and renal vein, artery and ureter were then exposed via a right retroperitoneal incision, under a dissecting microscope. Silk threads were placed around both vessels and ureter. The cavity was then covered with Vaseline oil.
# After 30-60 minutes of basal recordings of arterial blood pressure and heart rate the threads around the renal vessels and ureter were tied close to the renal hilum to induce complete renal ischemia of the right kidney. After 2 hours of ischemia, the threads were removed to allow renal reperfusion and urine output.
# For irbesartan experiments and comparisons, control (vehicle) or drug (irbesartan (100 μg/kg), lercanidipine (7.5 μg/kg), or both lercanidipine (7.5 μg/kg) and irbesartan (100 μg/kg)) were administered intravenously at 5 min after reperfusion was begun.
# Results were expressed as mean values ±S.E. (in the tables) and in percent change observed.
# To evaluate the effects of drugs administration on blood pressure and heart rate within each group, two-way ANOVA and Dunnet's test were used (“within treatment”). To evaluate the statistical differences among the treatment groups, data are analyzed using a three-way ANOVA (analysis of variance) with repeated measures on factor time and pre-planned multiple comparisons. The analysis was performed using, for each treatment, delta values (log transformation). […] (“between treatments”).
# [3] = system: reperfusion-induced hypertension in uninephrectomized anesthetized rats; test: as above; assay type: in vivo, rat; remark: listed apart in the source
# [4] = between treatments, three-way ANOVA on delta values, lercanidipine 7.5 μg/kg, irbesartan 100 μg/kg i.v.
# [5] = irbesartan 100 μg/kg i.v., n=6, time 0 min, basal, pre-drug
# [6] = irbesartan 100 μg/kg i.v., n=6, time 120 min, end of ischemia, pre-drug
# [7] = irbesartan 100 μg/kg i.v., n=6, time 130 min, 5 min after drug
# [8] = irbesartan 100 μg/kg i.v., n=6, time 135 min, 10 min after drug
# [9] = irbesartan 100 μg/kg i.v., n=6, time 150 min, 25 min after drug
# [10] = irbesartan 100 μg/kg i.v., n=6, time 165 min, 40 min after drug
# [11] = irbesartan 100 μg/kg i.v., n=6, time 180 min, 55 min after drug
# [12] = irbesartan 100 μg/kg i.v., n=6, time […], 5 min reperfusion, pre-drug
# [13] = between treatments, three-way ANOVA on delta values, lercanidipine 10 μg/kg, valsartan 30 μg/kg i.v.
# [14] = valsartan 30 μg/kg i.v., n=7, time 0 min, basal, pre-drug
# [15] = valsartan 30 μg/kg i.v., n=7, time 120 min, end of ischemia, pre-drug
# [16] = valsartan 30 μg/kg i.v., n=7, time 130 min, 5 min after drug
# [17] = valsartan 30 μg/kg i.v., n=7, time 135 min, 10 min after drug
# [18] = valsartan 30 μg/kg i.v., n=7, time 150 min, 25 min after drug
# [19] = valsartan 30 μg/kg i.v., n=7, time 165 min, 40 min after drug
# [20] = valsartan 30 μg/kg i.v., n=7, time 180 min, 55 min after drug
# [21] = valsartan 30 μg/kg i.v., n=7, time […], 5 min reperfusion, pre-drug
# ACE, sequence (P12821 30-1306, species assumed): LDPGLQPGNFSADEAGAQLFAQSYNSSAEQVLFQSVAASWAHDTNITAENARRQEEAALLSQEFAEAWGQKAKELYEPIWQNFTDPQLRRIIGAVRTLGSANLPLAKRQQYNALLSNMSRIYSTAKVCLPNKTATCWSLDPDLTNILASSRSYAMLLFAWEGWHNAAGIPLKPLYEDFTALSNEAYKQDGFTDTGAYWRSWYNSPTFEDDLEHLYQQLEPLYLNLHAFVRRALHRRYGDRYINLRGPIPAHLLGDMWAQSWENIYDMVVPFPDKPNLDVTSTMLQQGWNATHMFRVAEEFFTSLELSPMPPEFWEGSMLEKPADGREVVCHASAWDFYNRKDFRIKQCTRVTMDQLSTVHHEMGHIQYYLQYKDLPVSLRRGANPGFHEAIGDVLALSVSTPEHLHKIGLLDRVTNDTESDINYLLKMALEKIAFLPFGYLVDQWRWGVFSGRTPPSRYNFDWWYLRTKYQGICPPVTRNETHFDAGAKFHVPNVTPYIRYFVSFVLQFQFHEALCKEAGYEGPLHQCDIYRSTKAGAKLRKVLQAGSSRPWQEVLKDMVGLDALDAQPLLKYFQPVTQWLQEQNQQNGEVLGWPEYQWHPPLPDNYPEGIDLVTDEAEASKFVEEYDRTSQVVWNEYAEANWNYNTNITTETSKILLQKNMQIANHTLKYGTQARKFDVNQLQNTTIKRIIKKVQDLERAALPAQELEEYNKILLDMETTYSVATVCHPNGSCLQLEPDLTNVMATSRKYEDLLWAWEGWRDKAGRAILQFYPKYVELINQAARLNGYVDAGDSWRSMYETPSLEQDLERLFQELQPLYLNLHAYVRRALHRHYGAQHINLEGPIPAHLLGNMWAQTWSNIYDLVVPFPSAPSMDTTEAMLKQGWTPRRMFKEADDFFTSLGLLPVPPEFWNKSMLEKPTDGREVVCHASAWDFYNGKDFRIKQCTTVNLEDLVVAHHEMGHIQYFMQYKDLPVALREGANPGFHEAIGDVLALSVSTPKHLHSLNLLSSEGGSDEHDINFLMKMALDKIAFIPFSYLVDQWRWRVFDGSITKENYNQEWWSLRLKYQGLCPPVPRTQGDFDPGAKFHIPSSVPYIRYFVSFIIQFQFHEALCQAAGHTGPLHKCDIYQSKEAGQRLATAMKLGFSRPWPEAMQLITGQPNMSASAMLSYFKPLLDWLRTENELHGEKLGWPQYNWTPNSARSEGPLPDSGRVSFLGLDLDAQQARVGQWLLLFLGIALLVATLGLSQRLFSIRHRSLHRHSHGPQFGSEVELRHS
smiles,measurement,setting,value
"CCCc1nc(C(C)(C)O)c(C(=O)O)n1Cc1ccc(-c2ccccc2-c2nnn[nH]2)cc1 [olmesartan, 4-(1-hydroxy-1-methylethyl)-2-propyl-1-[p-(o-1H-tetrazol-5-ylphenyl)benzyl]imidazole-5-carboxylic acid]",inhibition of ACE,ACE,does not inhibit
same,cleared in the urine,[1]; following oral administration of olmesartan,35 to 50%
same,time of peak serum/plasma concentration,[1],1 to 2 h
"CCCCc1ncc(/C=C(\Cc2cccs2)C(=O)O)n1Cc1ccc(C(=O)O)cc1 [Eprosartan, (E)-2-butyl-1 (p-carboxybenzyl)-α-2-thienylmethylimidazole-5-acrylic acid]",time of peak serum/plasma concentration,[1],1 to 2 h
same,affinity for the AT1 receptor relative to the AT2 receptor,AT1 receptor,about 1000 times
CCCCc1nc(Cl)c(C(=O)O)n1Cc1ccc(-c2ccccc2-c2nn[nH]n2)cc1 [active carboxylic acid metabolite],time of peak serum/plasma concentration,[1],3 to 4 h
same,terminal half-life,[1],6 to 9 h
"CCCCC1=NC2(CCCC2)C(=O)N1Cc1ccc(-c2ccccc2-c2nnn[nH]2)cc1 [irbesartan, 2-butyl-3-[[2′-(1H-tetrazol-5-yl)[1,1′-biphenyl]-4-yl]methyl]-1,3-diazaspiro[4.4]non-1-en-4-one]",inhibition of ACE,ACE,does not inhibit
same,time of peak serum/plasma concentration,[1],1.5 to 2 h
same,greater affinity for AT1 receptor compared to AT2 receptor,AT1 receptor,more than 8500 fold
same,Diastolic blood pressure: general differences among groups: p vs Vehicle,[2]; [4],p < 0.05
same,Heart rate differences among groups: p vs Vehicle,[2]; [4],ns
same,Systolic blood pressure differences among groups: p vs Vehicle,[2]; [4],ns
same,DBP,[2]; [5],63.8 ± 3.5 mmHg
same,HR,[2]; [5],373.3 ± 14.5 beats/min
same,SBP,[2]; [5],113.3 ± 6.7 mmHg
same,DBP,[2]; [6],59.0 ± 2.0 mmHg
same,HR,[2]; [6],360.0 ± 13.4 beats/min
same,SBP,[2]; [6],112.0 ± 5.6 mmHg
same,DBP,[2]; [7],86.3 ± 5.8 b mmHg
same,HR,[2]; [7],341.7 ± 13.8 beats/min
same,SBP,[2]; [7],134.3 ± 5.5 b mmHg
same,DBP,[2]; [8],90.0 ± 5.6 b mmHg
same,HR,[2]; [8],346.7 ± 13.6 beats/min
same,SBP,[2]; [8],138.7 ± 5.3 b mmHg
same,DBP,[2]; [9],91.7 ± 6.1 b mmHg
same,HR,[2]; [9],361.7 ± 7.5 a beats/min
same,SBP,[2]; [9],139.0 ± 5.7 b mmHg
same,DBP,[2]; [10],85.7 ± 6.6 b mmHg
same,HR,[2]; [10],363.3 ± 11.8 a beats/min
same,SBP,[2]; [10],136.0 ± 7.6 b mmHg
same,DBP,[2]; [11],b 79.3 ± 8.1 b mmHg
same,HR,[2]; [11],375.0 ± 13.1 b beats/min
same,SBP,[2]; [11],125.7 ± 8.3 mmHg
same,DBP,[2]; [12],107.0 ± 4.8 mmHg
same,HR,[2]; [12],336.7 ± 14.1 beats/min
same,SBP,[2]; [12],153.7 ± 5.1 mmHg
same,effect on heart rate (in words),"[2]; lercanidipine 7.5 μg/kg, irbesartan 100 μg/kg i.v., alone or together",no statistically significant change in heart rate
same,effect on blood pressure (in words),"[2]; lercanidipine 7.5 μg/kg, irbesartan 100 μg/kg i.v., alone or together, 5 min after reperfusion",statistically significant decrease in both systolic and diastolic blood pressure
"CCCCC(=O)N(Cc1ccc(-c2ccccc2-c2nnn[nH]2)cc1)[C@H](C(=O)O)C(C)C [valsartan, N-(1-oxopentyl)-N-[[2′-(1H-tetrazol-5-yl)[1,1′-biphenyl]-4-yl]methyl]-L-valine]",inhibition of ACE,ACE,does not inhibit
same,Diastolic blood pressure: general differences among groups: p vs Vehicle,[3]; [13],p < 0.01
same,Heart rate: general differences among groups: p vs Vehicle,[3]; [13],ns
same,Systolic blood pressure: general differences among groups: p vs Vehicle,[3]; [13],ns
same,effect on heart rate (in words),"[3]; lercanidipine 10 μg/kg, valsartan 30 μg/kg i.v., alone or together",no statistically significant modification on heart rate
same,time of statistically significant decrease in diastolic blood pressure after administration,"[3]; within treatment vs […], lercanidipine 10 μg/kg or valsartan 30 μg/kg i.v.",5 to 55 min
same,time of peak serum/plasma concentration,[1],2 to 4 h
same,DBP,[2]; [14],66.7 ± 4.1 mmHg
same,HR,[2]; [14],372.9 ± 8.4 beats/min
same,SBP,[2]; [14],126.4 ± 5.5 mmHg
same,DBP,[2]; [15],62.1 ± 4.4 mmHg
same,HR,[2]; [15],366.4 ± 10.9 beats/min
same,SBP,[2]; [15],120.1 ± 4.3 mmHg
same,DBP,[2]; [16],90.4 ± 4.4 b mmHg
same,HR,[2]; [16],372.1 ± 10.0 beats/min
same,SBP,[2]; [16],145.6 ± 1.7 mmHg
same,DBP,[2]; [17],87.1 ± 5.2 b mmHg
same,HR,[2]; [17],381.4 ± 7.3 beats/min
same,SBP,[2]; [17],143.4 ± 1.0 a mmHg
same,DBP,[2]; [18],81.4 ± 4.5 b mmHg
same,HR,[2]; [18],382.1 ± 6.9 beats/min
same,SBP,[2]; [18],136.7 ± 1.9 b mmHg
same,DBP,[2]; [19],79.7 ± 4.6 b mmHg
same,HR,[2]; [19],375.7 ± 7.6 beats/min
same,SBP,[2]; [19],135.6 ± 4.0 b mmHg
same,DBP,[2]; [20],77.3 ± 4.7 b mmHg
same,HR,[2]; [20],368.6 ± 6.7 beats/min
same,SBP,[2]; [20],130.0 ± 3.9 b mmHg
same,DBP,[2]; [21],108.1 ± 3.8 mmHg
same,HR,[2]; [21],362.1 ± 12.9 beats/min
same,SBP,[2]; [21],161.0 ± 2.4 mmHg
CCOc1nc2cccc(C(=O)O)c2n1Cc1ccc(-c2ccccc2-c2nnn[nH]2)cc1 [Candesartan free acid],greater affinity for the AT1 receptor than the AT2 receptor,AT1 receptor,"< 10,000"
"CCCc1nc2c(C)cc(-c3nc4ccccc4n3C)cc2n1Cc1ccc(-c2ccccc2C(=O)O)cc1 [Telmisartan, 4′-[1,4′-dimethyl-2[-propyl[2,6′-bi-1H-benzimidazol]-1′-yl)methyl]-[1,1′-biphenyl]-2-carboxylic acid]",inhibition of ACE,ACE,does not inhibit
same,time of peak serum/plasma concentration,[1],0.5 to 1 h
same,administered dose eliminated unchanged in feces via biliary excretion,[1]; intravenous or oral administration,> 97%
"CCCCc1nc(Cl)c(CO)n1Cc1ccc(-c2ccccc2-c2nnn[nH]2)cc1.[K] [losartan, 2-butyl-4-chloro-1-[p-(o-1H-tetrazol-5-ylphenyl)-benzyl]imidazole-5-methanol monopotassium salt]",inhibition of ACE,ACE,does not inhibit
same,time of peak serum/plasma concentration,[1],1 h
same,terminal half-life,[1],about 2 hours
